Test results from PMC10398414, “Isolation and characterization of β-transducin repeat-containing protein ligands screened using a high-throughput screening system” (Oncology Research, 2023).
Square brackets hold non-standard residues; d marks the D form. Ends that are not written are not given here. Peptide text beside a SMILES is read from it. * marks the point of attachment. pS = N[C@@H](COP(=O)(O)O)C(=O)O; Cbz = O=C(OCc1ccccc1)*

T1: mAG-β-TrCP1 (Homo sapiens, UniProt Q9Y297)
T1 construct: made in house; host or cells: Express SF+ insect cells (baculovirus, pFASTBacI); crude lysate used
T1 sequence (Q9Y297 1-605): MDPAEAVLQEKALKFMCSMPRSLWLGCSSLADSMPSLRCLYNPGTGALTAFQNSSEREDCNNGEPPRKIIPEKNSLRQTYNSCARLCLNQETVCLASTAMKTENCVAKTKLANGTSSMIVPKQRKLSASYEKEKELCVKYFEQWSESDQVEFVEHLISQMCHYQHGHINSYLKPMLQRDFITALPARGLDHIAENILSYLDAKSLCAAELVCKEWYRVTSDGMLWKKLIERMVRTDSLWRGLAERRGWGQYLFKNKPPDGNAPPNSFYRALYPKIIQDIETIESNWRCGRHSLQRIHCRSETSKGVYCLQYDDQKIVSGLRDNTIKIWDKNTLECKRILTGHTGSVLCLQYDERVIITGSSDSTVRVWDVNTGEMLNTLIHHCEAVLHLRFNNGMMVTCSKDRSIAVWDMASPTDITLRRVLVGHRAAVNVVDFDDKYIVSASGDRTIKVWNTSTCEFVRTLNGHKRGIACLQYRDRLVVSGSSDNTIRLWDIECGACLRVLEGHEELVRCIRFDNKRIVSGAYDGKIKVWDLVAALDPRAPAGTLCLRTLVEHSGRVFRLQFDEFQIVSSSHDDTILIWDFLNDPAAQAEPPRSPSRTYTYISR

B1: Wnt3a: molecule that stimulates classic Wnt signaling (protein, UniProt P56704 19-352, looked up)
Protein Wnt-3a: SYPIWWSLAVGPQYSSLGSQPILCASIPGLVPKQLRFCRNYVEIMPSVAEGIKIGIQECQHQFRGRRWNCTTVHDSLAIFGPVLDKATRESAFVHAIASAGVAFAVTRSCAEGTAAICGCSSRHQGSPGKGWKWGGCSEDIEFGGMVSREFADARENRPDARSAMNRHNNEAGRQAIASHMHLKCKCHGLSGSCEVKTCWWSQPDFRAIGDFLKDKYDSASEMVVEKHRESRGWVETLRPRYTYFKVPTERDLVYYEASPNFCEPNPETGSFGTRDRTCNVSSHGIDGCDLLCCGRGHNARAERRREKCRCVFHWCCYVSCQECTRVYDVHTCK

Legend:
[1] = test system: NF-κB transcription activity in HeLa cells; experiment: NF-κB luciferase reporter assay (pGL-4.32), TNF-α induced; format: cell-based; details: for NF-κB transcription, % of that of the control group (DMSO, TNF-α): 20 μM; for TNF-α induced NF-κB activation of transcription: 24 h compound then TNF-α 4 h
Experimental: For NF-κB transcription activity, PGL-4.32 contains five copies of the NF-κB response element, which is responsible for the transcription of the luciferase reporter gene, with pRL-SV40 as the internal control. NF-κB transcription activity was determined by firefly luciferase expression and normalized by renilla luciferase level. pGL-4.32 reporter plasmids (Promega) and pRL-sv40 renilla luciferase reporter (Promega) were co-transfected into HeLa cells using Lipofectamine 3000 reagent kit. Subsequently, 24 h after transfection, cells were cultured with the compounds of different dilutions for another 24 h. Furthermore, TNF-α was added, and the plates were cultured for another 4 h. The cells were lysed, and the luminescence was measured using the Luciferase Assay System. A minimum of three samples were taken for each sample.

[2] = test system: TCF transcription in HeLa cells; experiment: TOP/FOP-Flash luciferase reporter assay (TCF transcription activity); format: cell-based; details: 24 h with compound
Experimental: HeLa cells were seeded on 96-well plates. Subsequently, TCF and NF-κB transcription activity was examined by the luciferase assay system. T-cell Factor (TCF) transcription activity was assessed by TOP/FOP-Flash luciferase reporter assay, using a pRL-SV40 vector as an internal control. TOP FLASH contains three […] and a firefly luciferase reporter with a minimal promoter and an upstream of the luciferase reporter gene. FOP FLASH is similar to TOP reporter; however, it has three mutated TCF-binding sites and is used as a negative control. The average ratio of TOP to renilla luciferase divided by FOP was used as TCF activity. TOP flash (Sigma-Aldrich, Temecula, CA, USA) or FOP FLASH reporter plasmids (Sigma-Aldrich) and pRL-sv40 renilla luciferase reporter (Promega) were co-transfected into HeLa cells using Lipofectamine 3000 reagent kit (Thermo Fisher Scientific). Furthermore, 24 h after transfection, cells were cultured with the compounds of different dilutions for another 24 h. The cells were lysed, and the luminescence was measured using the Luciferase Assay System (Promega). A minimum of three samples were taken for each sample.

SCF^β-TrCP1 = SCF^β-TrCP1 (Homo sapiens, UniProt Q9Y297); experiment: In vitro ubiquitination assay (GST-Wee1KR substrate, immunoblotting); format: biochemical; details: immunoblots quantitated by ImageJ
SCF^β-TrCP1, sequence (P63208 whole entry partner, one chain of several): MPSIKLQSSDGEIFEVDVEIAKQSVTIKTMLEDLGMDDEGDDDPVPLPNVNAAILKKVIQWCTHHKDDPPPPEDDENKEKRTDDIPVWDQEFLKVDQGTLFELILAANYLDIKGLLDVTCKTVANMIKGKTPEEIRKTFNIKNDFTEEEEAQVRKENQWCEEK
SCF^β-TrCP1, sequence (Q13616 whole entry partner, one chain of several): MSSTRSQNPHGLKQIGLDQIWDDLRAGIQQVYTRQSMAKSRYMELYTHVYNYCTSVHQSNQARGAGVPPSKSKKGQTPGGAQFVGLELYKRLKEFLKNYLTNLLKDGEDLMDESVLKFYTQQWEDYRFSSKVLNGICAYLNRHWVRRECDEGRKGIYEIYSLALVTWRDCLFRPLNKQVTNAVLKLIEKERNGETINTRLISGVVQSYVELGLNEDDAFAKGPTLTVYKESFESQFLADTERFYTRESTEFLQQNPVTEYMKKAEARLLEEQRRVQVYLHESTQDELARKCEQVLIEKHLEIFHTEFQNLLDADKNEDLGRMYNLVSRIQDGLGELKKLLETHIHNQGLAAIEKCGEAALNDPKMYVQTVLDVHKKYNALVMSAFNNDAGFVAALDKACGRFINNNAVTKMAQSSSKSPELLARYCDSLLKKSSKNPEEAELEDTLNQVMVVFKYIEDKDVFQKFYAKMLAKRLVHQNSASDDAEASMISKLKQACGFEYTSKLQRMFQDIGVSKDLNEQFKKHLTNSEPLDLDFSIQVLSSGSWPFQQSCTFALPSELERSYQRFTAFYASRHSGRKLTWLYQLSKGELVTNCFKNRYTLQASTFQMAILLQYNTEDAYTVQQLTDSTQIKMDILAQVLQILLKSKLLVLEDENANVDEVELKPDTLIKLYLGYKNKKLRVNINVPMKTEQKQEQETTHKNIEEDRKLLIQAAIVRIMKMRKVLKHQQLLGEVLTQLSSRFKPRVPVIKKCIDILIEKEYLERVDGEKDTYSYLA
SCF^β-TrCP1, sequence (P62877 whole entry partner, one chain of several): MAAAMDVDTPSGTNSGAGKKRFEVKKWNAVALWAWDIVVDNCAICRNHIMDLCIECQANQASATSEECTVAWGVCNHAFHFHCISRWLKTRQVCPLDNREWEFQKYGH
Experimental: Components of SCF complex (SKP1, Cul1, Rbx1, and hemagglutinin (HA)-tagged β-TrCP) were expressed in HEK293T cells. Anti-HA antibody was added into the SCF complexes expressed HEK 293T cell lysate and rotated at 4°C for 1 h. Aliquots of this mixture were added to protein G beads and rotated at 4°C for 30 min. After washing the beads in cell lysis buffer three times, the tube was centrifuged at 20,400 × g for 5 min and the supernatant was discarded. The protein on the beads was used as recombinant SCF^β-TrCP complexes. Aliquots of SCF complexes bound on the beads were then added to ubiquitination reactions (10 mM Tris pH = 7.5, 5 mM MgCl2, 1 mM DTT, 1 mM ATP, 20 mM creatine phosphate, 0.1 mg/mL creatine kinase, 5 mM NaF, 1 mM Na3VO4, 2 mg/mL ubiquitin, 0.5 μg E1 enzyme, 2 μg E2 enzyme) in a final volume of 30 µL. Compounds of 100 µM final concentration were added to reactions, and GST-Wee1KR was added as substrate 15 min later. The reaction mixtures were incubated at 37°C for 2 h and were further examined by immunoblotting.
(§1) Immunoblotting followed by in vitro ubiquitination assay was performed using anti-human Wee1A [30]. Immunoblotting in the analysis of protein degradation was performed using anti-phospho-β-catenin (Ser33/37/Thr41) antibody (1:1000, Cell Signaling Technology, Danvers, MA, USA), anti-phospho-IκBα (Ser32) (14D4), Rabbit mAb (1:1000, Cell Signaling Technology), anti-β-catenin (D10A8) (1:1000, Cell Signaling Technology), anti-IκBα antibody (1:1000, Cell Signaling Technology), and Goat polyclonal anti-rabbit IgG antibody (1:5000, Proteintech, Am Klopferspitz, Planegg-Martinsried, Germany). The transferred membrane was incubated with specific antibody, then detected using Super Signal West Pico chemiluminescent substrate (Thermo Fisher Scientific) and FUSION SOLO S (VILBER LOURMAT/MS equipment, Zi Sud torcy, Marne-la-vallee, France). The quantification of immunoblotting results was performed using ImageJ software.

[3] = test system: β-catenin and phosphorylated β-catenin in HeLa cells; experiment: Analysis of β-catenin degradation by immunoblotting in HeLa cells; format: cell-based; details: 3 h with compound
Experimental: as §1
For examining the effect on degradation of β-catenin, HeLa cells were cultured in the presence or absence of the compound for 3 h. The cell extracts were examined by immunoblotting using antibodies against β-catenin and phosphorylated β-catenin (p-β-catenin).

[4] = test system: IκBα and phosphorylated IκBα in HeLa cells; experiment: TNF-α induced IκBα degradation by immunoblotting in HeLa cells; format: cell-based; details: 30 min compound then TNF-α 40 ng/mL 5 min
Experimental: as §1
For examining the effect on degradation of IκBα, HeLa cells were cultured in the presence or absence of the compound for 30 min. TNF-α (Cat. No. TNA-H4211, Acro Biosystems, Newark, DE, USA) was added (40 ng/mL) and incubated for another 5 min. The cell extracts were analyzed using immunoblotting using antibodies against IκBα and phosphorylated IκBα (p-IκBα).

HeLa cells = experiment: Cytotoxicity / cell death; format: cell-based; details: data not shown
mAG-β-TrCP1 = molecular target: T1, mAG-β-TrCP1; experiment: High-throughput screening system for β-TrCP ligands (mAG-β-TrCP1 binding to plate-fixed C-IκB-PP15); details: serially diluted free phosphopeptide in cell lysate
Source text: NotI digested mAG-β-TrCP1 (mAG, N-terminally fused fluorescent monomeric Azami Green) fragment was inserted to NotI pFASTBacI (Gibco) site for obtaining recombinant plasmid containing mAG-β-TrCP1. The recombinant plasmids were then transformed into DH10Bac cells and the obtained recombinant bacmids were transfected into Express SF+ Cells. Phosphopeptides C-IkB pp15 with target sequences (seq: CDDRHDpSGLDpSMKDEE) for β-TrCP-dependent binding or its negative control C-IkB s15 (seq: CDDRHDSGLDSMKDEE) were used in the establishment of the high-throughput system. These phosphopeptides, and their non-phosphorylated derivatives, were chemically synthesized at RIKEN CBS, Research Resources Center, Japan. C-IkB pp15 or C-IkB s15 (100 μL/well of 10 μM solution) were covalently attached to maleimide-activated 96-well plates (Themo Fisher Scientific, Waltham, MA, USA) overnight. […] After washing, bound mAG-β-TrCP1 was quantitated using spectrofluorometry (excitation, 470 nm; emission, 525 nm).
C-IκB-PP15 is a phosphopeptide whose sequence is derived from IκB that is known to bind to β-TrCP. […] After enough binding and washing, the bound mAG-β-TrCP1 was quantitated using spectrofluorometry. […] When the small molecules compete with the phosphopeptides for mAG-β-TrCP1 binding, there was less plate fluorescence (Fig. 1A).

| Molecule | NF-κB transcription, % of that of the control group (DMSO, TNF-α) [1] | TCF transcription [2] | IC50 (SCF^β-TrCP1) [µM] | level of phosphorylated β-catenin (p-β-catenin) [3] | level of β-catenin [3] | level of IκBα after TNF-α [4] | level of phosphorylated IκBα (p-IκBα) after TNF-α [4] | TNF-α induced NF-κB activation of transcription [1] | non-specific cytotoxicity (HeLa cells) | binding of mAG-β-TrCP1 to plate-fixed phosphopeptide in presence of free phosphopeptide (mAG-β-TrCP1) |
| --- | --- | --- | --- | --- | --- | --- | --- | --- | --- | --- |
| O=C(O)c1ccc(N2N=C(Cc3ccccc3)/C(=C/c3ccc(-c4ccccc4F)o3)C2=O)cc1 [GS143, reference compound] | ~ 40% | did not affect TCF transcription | 25 | did not affect | did not affect | caused the inhibition of the degradation | caused the inhibition of the degradation |  |  |  |
| CC(C)C[C@@H](C=O)NC(=O)[C@H](CC(C)C)NC(=O)[C@H](CC(C)C)NC(=O)OCc1ccccc1 [MG132, reference compound] (Cbz-Leu-Leu-Leu-aldehyde) |  |  |  | caused the accumulation | caused the accumulation | caused the inhibition of the degradation | caused the inhibition of the degradation |  |  |  |
| CC1=NN(c2ccc(C(=O)O)cc2)C(=O)/C1=C\c1ccc(-c2ccc3c(c2)C(=O)N(C(C)C)C3=O)o1 [NPL42040-01] |  |  | 13 |  |  |  |  | reduced NF-κB activation dose-dependently | cytotoxicity only at high concentration |  |
| CC1=NN(c2ccc(C(=O)O)cc2)C(=O)/C1=C\c1ccc(-c2cc(C)c(C)cc2[N+](=O)[O-])o1 [NPL62020-01] | approximately 20% |  | 30 |  |  |  |  | reduced NF-κB activation dose-dependently | cytotoxicity only at high concentration |  |
| COC(=O)c1ccc(-c2ccc(/C=C3\C(=O)N(c4cccc(C(=O)O)c4)N=C3C(F)(F)F)o2)cc1 [NPL62039-01] |  | did not cause a high increase | 9 | promoted the accumulation | did not significantly affect |  |  |  |  |  |
| O=C(O)c1ccc(-c2ccc(/C=C3\C(=O)N(c4ccc(C(=O)O)cc4)N=C3C(F)(F)F)o2)cc1 [NPL72038-01] |  | did not cause a high increase | 7 | promoted the accumulation | did not significantly affect |  |  |  |  |  |
| CDDRHDpSGLDpSMKDEE (CDDRHD[pS]GLD[pS]MKDEE) [C-IκB-PP15] |  |  |  |  |  |  |  |  |  | concentration-dependent binding decrease |
| B1 |  | increased |  |  |  |  |  |  |  |  |
